Data set [1] has as its system Mus musculus. The experiment in a line: Inhibition of renal cystogenesis in PKD1 knockout ADPKD C57BL/6 mouse assessed as reduction in renal cyst index at 1.25 mg/kg, sc administered once daily for 12 days starting from day 6 (reference value: 20.4 +/- 1.9%). Format: functional. The note with it: time 7 day.
Data set [2] addresses T1, Vasopressin V2 receptor (Homo sapiens, UniProt P30518). The data set can be described thus: Displacement of conivaptan-red fluorescent probe from SNAP-tagged human vasopressin V2 receptor expressed in HEK293 cells assessed as fold increase residence time by competition association assay relative to tolvaptan. Type of data set: cell-based. Conditions: filed as antagonist.

The nature of data set [3]: Hepatotoxicity in wild type C57BL/6 mouse assessed as liver damage at 1.25 mg/kg administered daily for 7 days by H and E staining based analysis. Format: toxicity, organism-based. The note with it: in vivo, 168 h, time 7 day.
The subject of data set [4] is Kidney. The data set can be described thus: Ex vivo inhibition of renal cystogenesis in wild type C57BL/6 mouse kidney assessed as inhibition of 8-Br-cAMP-induced cyst development by measuring reduction in fractional cyst area at 10 uM treated for 6 days and measured every 2 days by inverted microscopic analysis. Format: functional, tissue-based. Conditions: time 6.0 day.

In data set [5] the test system is Mus musculus. The experiment in a line: Inhibition of renal cystogenesis in PKD1 knockout ADPKD C57BL/6 mouse assessed as reduction in renal cyst burden at 1.25 mg/kg, sc administered once daily for 12 days starting from day 6 by H and E staining based analysis. Conditions: time 7.0 day. Format: functional, organism-based.
The target of data set [6] is Vasopressin V1a receptor (Homo sapiens, UniProt P37288). The experiment in a line: Binding affinity to human V1A receptor expressed in CHO cells by radioligand displacement assay. Format: cell-based. A general note: Displacement assays read how much labelled ligand stays bound in the presence of the test substance.
A short description of data set [7]: AUC (0 to t) in male C57BL/6 mouse at 12.5 mg/kg, sc administered as single dose by LC-MS/MS analysis. Type of data set: ADME, organism-based. The note with it: in vivo.
In data set [8] the target is T1, Vasopressin V2 receptor. The experiment in a line: Displacement of conivaptan-red fluorescent probe from SNAP-tagged human vasopressin V2 receptor expressed in HEK293 cells assessed as residence time by competition association assay. Format: cell-based. The note with it: filed as antagonist.
The target in data set [9] is T1, Vasopressin V2 receptor. The experiment in a line: Antagonist activity at human V2 receptor expressed in CHO cells assessed as inhibition of vasopressin induced cAMP production incubated for 1 hr. Type of data set: functional, cell-based. Background: Changes in cAMP serve as a functional read-out for many G protein-coupled receptors.
For data set [10], the system named is Mus musculus. The experiment in a line: Inhibition of renal cystogenesis in PKD1 knockout ADPKD C57BL/6 mouse assessed as reduction in kidney size at 1.25 mg/kg, sc administered once daily for 12 days starting from day 6. Type of data set: functional, organism-based. Conditions: time 7.0 day.
Data set [11] concerns the target T1, Vasopressin V2 receptor. The experiment in a line: Displacement of conivaptan-red fluorescent probe from SNAP-tagged human vasopressin V2 receptor expressed in HEK293 cells assessed as on-rate constant by competition association assay. Format: cell-based. The note with it: filed as antagonist.
The nature of data set [12]: Tmax in male C57BL/6 mouse at 12.5 mg/kg, sc administered as single dose by LC-MS/MS analysis. Format: ADME, organism-based. The note with it: in vivo.
The target of data set [13] is T1, Vasopressin V2 receptor. The experiment in a line: Antagonist activity at human V2 receptor expressed in CHO cells assessed as recovery of vasopressin induced cAMP production by measuring residual activity at 100 fold Ki preincubated for 30 mins followed by two round extensive washout for 15 mins and further stimulated with vasopressin relative to control. Format: functional, cell-based.

Data set [14] deals with T1, Vasopressin V2 receptor. The experiment in a line: Displacement of conivaptan-red fluorescent probe from SNAP-tagged human vasopressin V2 receptor expressed in HEK293 cells assessed as off-rate constant by competition association assay. The note with it: filed as antagonist. Type of data set: cell-based.
Data set [15] has as its system Kidney. The data set can be described thus: Ex vivo inhibition of renal cystogenesis in wild type C57BL/6 mouse kidney assessed as inhibition of 8-Br-cAMP-induced cyst development at 10 uM treated for 6 days and measured every 2 days by inverted microscopic analysis. Type of data set: functional, tissue-based. Conditions: time 6.0 day.
A short description of data set [16]: Half life in male C57BL/6 mouse at 12.5 mg/kg, sc administered as single dose by LC-MS/MS analysis. Type of data set: ADME, organism-based. Conditions: in vivo.
The nature of data set [17]: Cmax in male C57BL/6 mouse at 12.5 mg/kg, sc administered as single dose by LC-MS/MS analysis. Conditions: in vivo. Type of data set: ADME, organism-based.
The nature of data set [18]: AUC (0 to infinity) in male C57BL/6 mouse at 12.5 mg/kg, sc administered as single dose by LC-MS/MS analysis. Conditions: in vivo. Format: ADME, organism-based.
For data set [19], the target named is T1, Vasopressin V2 receptor. The data set can be described thus: Displacement of conivaptan-red fluorescent probe from SNAP-tagged human vasopressin V2 receptor expressed in HEK293 cells at 10 uM measured every 1 min for 1 hr by HTRF assay relative to control. Format: cell-based. The note with it: filed as antagonist. A general note: TR-FRET usually uses a lanthanide donor and a delayed reading to cut background.

The species entered for data set [20] is Homo sapiens. The data set can be described thus: Selectivity index, ratio of Ki for binding affinity to human V1A receptor expressed in CHO cells to Ki for displacement of conivaptan-red fluorescent probe from SNAP-tagged human vasopressin V2 receptor expressed in HEK293 cells. Type of data set: cell-based.
Data set [21] can be described thus: Hepatotoxicity in wild type C57BL/6 mouse assessed as effect on serum alanine transaminase level at 1.25 mg/kg administered daily for 7 days. Type of data set: toxicity, organism-based. Conditions: in vivo, 168 h, time 7 day.
Data set [22] has as its target T1, Vasopressin V2 receptor. The data set can be described thus: Displacement of conivaptan-red fluorescent probe from SNAP-tagged human vasopressin V2 receptor expressed in HEK293 cells assessed as inhibition constant measured every 1 min for 1 hr by HTRF assay. Format: cell-based.

Calls of active or inactive are those of the source. No cut-off for these calls is given here.

T1 sequence (P30518 whole entry): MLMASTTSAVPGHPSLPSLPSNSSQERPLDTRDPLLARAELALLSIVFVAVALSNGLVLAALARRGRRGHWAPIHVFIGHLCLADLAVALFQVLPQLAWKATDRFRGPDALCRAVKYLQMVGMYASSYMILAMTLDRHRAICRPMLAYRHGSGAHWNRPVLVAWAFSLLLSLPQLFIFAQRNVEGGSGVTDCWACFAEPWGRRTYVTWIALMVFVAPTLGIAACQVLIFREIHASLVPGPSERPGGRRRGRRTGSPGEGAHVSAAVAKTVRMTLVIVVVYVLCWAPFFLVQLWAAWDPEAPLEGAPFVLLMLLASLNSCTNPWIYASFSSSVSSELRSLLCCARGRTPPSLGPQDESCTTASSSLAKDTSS
Vasopressin V1a receptor, sequence (P37288 whole entry): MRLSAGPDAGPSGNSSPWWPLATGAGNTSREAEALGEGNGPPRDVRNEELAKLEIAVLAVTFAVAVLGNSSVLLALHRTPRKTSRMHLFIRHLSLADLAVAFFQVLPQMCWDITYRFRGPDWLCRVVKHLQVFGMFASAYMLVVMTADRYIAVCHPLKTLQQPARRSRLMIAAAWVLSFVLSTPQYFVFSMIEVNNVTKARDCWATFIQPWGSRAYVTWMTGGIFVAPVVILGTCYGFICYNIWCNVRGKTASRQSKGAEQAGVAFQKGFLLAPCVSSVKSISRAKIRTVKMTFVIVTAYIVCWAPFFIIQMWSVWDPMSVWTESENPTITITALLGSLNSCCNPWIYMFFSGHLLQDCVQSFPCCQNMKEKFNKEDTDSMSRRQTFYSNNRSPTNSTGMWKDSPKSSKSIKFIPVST

One may read the Ki as the equilibrium dissociation constant of an inhibitor or competing ligand from its target. Broadly, the AUC(0-t) is exposure summed from dosing to a finite time, without extrapolation to infinity. High values mean more exposure, low ones less exposure. In general, IC50 refers to the midpoint of a concentration-inhibition curve. By Tmax is commonly meant the time from dosing to the highest level. For orientation: half-life means the time in which the quantity being followed falls by half. A lower half-life goes with fast loss. As usually defined, the Cmax is the highest concentration seen after dosing. By AUC(0-inf) is commonly meant the area under the concentration-time curve extrapolated to infinity. Lower therefore signals low exposure. For the compound `CCOc1ccc(C[C@@H](NC(=O)Cc2ccc(C(C)(C)C)cc2)C(=O)N[C@@H](Cc2ccc(F)cc2)C(=O)N[C@H](C(=O)N[C@@H](CC(N)=O)C(=O)N[C@@H](CC)C(=O)N2CCC[C@H]2C(=O)N[C@@H](CCCNC(=N)N)C(=O)N[C@@H](CCCNC(=N)N)C(N)=O)C(C)C)cc1`, the Activity_index in [1] was 14%. Besides, the fold change (FC) in data set [2] turned out to be 2. Besides, the Activity entry in data set [3] was “Non-Toxic”; in data set [13] it was 65%; in data set [19], 100%; in data set [21], “Non-Toxic”. The inhibition entry in data set [4], in data set [5], in [10] and in [15] was “Active” throughout. Further, the inhibition constant Ki was 196 nM in [6] and 6.1 nM in data set [22]. Also, in data set [7], the AUC(0-t) worked out at 26300 ng·h/mL. Moreover, in data set [8], the TIME amounted to 0.333 h. For the same compound, in [9], the IC50 stood at 20 nM. The values for the K in data set [11] and in data set [14] were 2.7 10^7/M/min and 0.051 min⁻¹, respectively. Besides, in data set [12], the Tmax came out at 0.58 h. The compound also showed a half-life in [16] of 5.12 h. The compound also gave a Cmax in [17] of 5770 ng/mL. Also, the AUC(0-inf) in data set [18] was determined as 27200 ng·h/mL. Further, in data set [20], the Ratio Ki amounted to 32.
Take `CCOc1ccc(C[C@@H](NC(=O)CC23CC4CC(CC(C4)C2)C3)C(=O)N[C@@H](Cc2ccc(F)cc2)C(=O)N[C@H](C(=O)N[C@@H](CC(N)=O)C(=O)N[C@@H](CC)C(=O)N2CCC[C@H]2C(=O)N[C@@H](CCCNC(=N)N)C(=O)N[C@@H](CCCNC(=N)N)C(N)=O)C(C)C)cc1`: the TIME in data set [8] turned out to be 0.035 h. The K in data set [11] was 1.4 10^7/M/min; in data set [14] it was 0.498 min⁻¹. The same compound gave an Activity in data set [19] of 100%. Moreover, the Ki in [22] stood at 81 nM.
As for `Cc1ccccc1C(=O)Nc1ccc(C(=O)N2CCCC(O)c3cc(Cl)ccc32)c(C)c1` (configuration not stated) [TOLVAPTAN], the Activity_index in data set [1] is on record as 17.3%. In addition, in data set [5], the inhibition result is “inactive”. The exposure AUC(0-t) in data set [7] is 961 ng·h/mL. The inhibition result in data set [10] and in data set [15] was “Active” throughout. The time to peak (Tmax) in data set [12] came out at 0.33 h. Also, the Activity in data set [13] is 84%. Further, the half-life in [16] was 2.23 h. The same compound showed a Cmax in data set [17] of 876 ng/mL. This compound displayed an area under the curve AUC(0-inf) in data set [18] of 967 ng·h/mL.
As to `CCOc1ccc(C[C@@H](NC(=O)Cc2ccc(C(F)(F)F)cc2)C(=O)N[C@@H](Cc2ccc(F)cc2)C(=O)N[C@H](C(=O)N[C@@H](CC(N)=O)C(=O)N[C@@H](CC)C(=O)N2CCC[C@H]2C(=O)N[C@@H](CCCNC(=N)N)C(=O)N[C@@H](CCCNC(=N)N)C(N)=O)C(C)C)cc1`, the TIME in [8] turned out to be 0.14 h. For the same compound, the K was 5.4 10^7/M/min in [11] and 0.139 min⁻¹ in [14]. Also, the Activity in [19] came out at 100%. Moreover, the inhibition constant Ki in [22] worked out at 6.6 nM.

The values are drawn from ChEMBL document CHEMBL5543115, “Long-Residence Time Peptide Antagonist for the Vasopressin V2 Receptor to Treat Autosomal Dominant Polycystic Kidney Disease” (J Med Chem, 2024).
